Type in all cases: cell-based
The test system of one assay is MDA-MB-231. Briefly: MTT cell viability assay, MDA-MB-231. The note with it: Homo sapiens. As to the method:
(§1) Cells were then treated with compound at various concentrations in 0.2 mL media. After the 72-hour incubation period, cells were washed in PBS (3×100 μL), and 10 μL MTT reagent was added with 100 μL fresh media. Cells were then incubated for 4 hr in a humidified chamber at 37° C. with 5% CO2. Insoluble formazan crystals were solubilized by addition of 0.1 mL detergent solution (4 hr at room temp., dark). Resulting colored solutions were then quantified at an absorbance of 570 nm.
A general note: Formazan colour is commonly taken as a measure of viable cells.

The subject of the next assay is MEF (C57BL/6). Briefly: MTT cell viability assay, MEF (C57BL/6). The conditions noted are these: Mus musculus. As to the method:
as §1

Another assay concerns MCF-7. Kind of assay: MTT cell viability assay, MCF-7. The conditions noted are these: Homo sapiens, read-out: IC50/μM MCF-7. As to the method:
as §1

[1] abbreviates: MDA-MB-231, 72 h, 72-hour incubation.
The mark [2] stands for this setting: MTT, 72-hour incubation, read-out: IC50/μM MEF (C57BL/6).
Where [3] appears, read: MCF7, 72 h, MTT, 72-hour incubation.
[4] abbreviates: 72 h, read-out: IC50/μM MEF (C57BL/6), MTT, 72-hour incubation.

Each structure is given as a SMILES string. Read-outs that look alike come from different tables or passages of the source.

On to `CCn1c(=O)/c(=C2\Sc3ccc(OC)cc3N2C)s/c1=C\c1scc[n+]1Cc1ccccc1` [JG-376], for which the IC50 with MDA-MB-231 (setting [1]) came to 0.36 ± 0.05 µM; in the assay with MEF (C57BL/6) (setting [2]) it was 1 ± 0.1 µM; in the assay with MCF-7 (setting [3]), 0.37 ± 0.02 µM.
For `CCc1ccc2c(c1)S/C(=c1/s/c(=C\c3scc[n+]3Cc3ccccc3SC(F)(F)F)n(CC)c1=O)N2C` [JG-344], the IC50 in the assay with MDA-MB-231 (MDA-MB-231, 72-hour incubation) is 0.17 ± 0.01 µM; in the assay with MEF (C57BL/6) (setting [2]), 0.46 ± 0.03 µM; with MCF-7 (MCF7, MTT, 72-hour incubation) it was 0.087 ± 0.007 µM.
In the same order, the values of `CCn1c(=O)/c(=C2\Sc3cc(SC)ccc3N2C)s/c1=C\c1scc[n+]1Cc1ccccc1C(=O)OC` [JG-357] are 0.14 ± 0.01 µM, 3.5 ± 0.2 µM and 0.25 ± 0.01 µM.
In the same order, the values of `CCn1c(=O)/c(=C2\Sc3cc(Cl)ccc3N2C)s/c1=C\c1scc[n+]1Cc1ccccc1S(C)(=O)=O` [JG-287] are 1.3 ± 0.3 µM, above 10 µM and 1.73 ± 0.2 µM.
The corresponding values for `CCn1c(=O)/c(=C2\Sc3cc(OC)ccc3N2C)s/c1=C\c1scc[n+]1Cc1c(Cl)cccc1Cl` [JG-348] are 0.1 ± 0.01 µM, 1.1 ± 0.1 µM and 0.1 ± 0.01 µM.
For `CCn1c(=O)/c(=C2\Sc3cc(OC)ccc3N2C)s/c1=C\c1scc[n+]1Cc1ccccc1Cl` [JG-301], the IC50 in the assay with MDA-MB-231 (setting [1]) was found to be 0.033 ± 0.005 µM; in the assay on MEF (C57BL/6) (setting [4]), 0.66 ± 0.01 µM; in the assay on MCF-7 (setting [3]), 0.048 ± 0.003 µM.
`CCn1c(=O)/c(=C2\Sc3cc(Cl)ccc3N2C)s/c1=C\c1scc[n+]1Cc1cnc(Cl)s1` [JG-259]: the IC50 with MDA-MB-231 (setting [1]) is 2.3 ± 0.3 µM; in the assay with MEF (C57BL/6) (setting [4]), 8.9 ± 0.8 µM; with MCF-7 (MCF7, MTT, 72-hour incubation), above 5 µM.
As for `CCn1c(=O)/c(=C2\Sc3ccc(OC)cc3N2C)s/c1=C\c1scc[n+]1Cc1ccccc1SC(F)(F)F` [JG-399], the IC50 in the assay on MDA-MB-231 (MDA-MB-231, 72-hour incubation) came out at 0.11 ± 0.01 µM; in the assay on MEF (C57BL/6) (setting [2]) it was 3.1 ± 0.2 µM; in the assay on MCF-7 (MCF7, MTT, 72-hour incubation), 0.2 ± 0.01 µM.
For the molecule `CCn1c(=O)/c(=C2\Sc3ccc(OC)cc3N2C)s/c1=C\c1scc[n+]1Cc1ccccc1C(F)(F)F` [JG-401], the IC50 with MDA-MB-231 (MDA-MB-231, 72-hour incubation) was determined as 0.11 ± 0.01 µM; in the assay on MEF (C57BL/6) (setting [2]), 0.27 ± 0.03 µM; in the assay with MCF-7 (MCF7, MTT, 72-hour incubation) it was 0.45 ± 0.04 µM.
In the same order, the values of `CCn1c(=O)/c(=C2\Sc3cc(F)ccc3N2C)s/c1=C\c1scc[n+]1Cc1c(C)noc1C` [JG-268] are above 20 µM, above 10 µM and above 5 µM.
Take `CCn1c(=O)/c(=C2\Sc3cc(SC)ccc3N2C)s/c1=C\c1scc[n+]1Cc1ccccc1Cl` [JG-309]: the figures for the IC50 in the assay with MDA-MB-231 (setting [1]), with MEF (C57BL/6) (setting [4]) and in the assay with MCF-7 (setting [3]) were 0.13 ± 0.01 µM, 0.75 ± 0.05 µM and 0.15 ± 0.01 µM, respectively.
In the case of `CCn1c(=O)/c(=C2\Sc3cc(C)ccc3N2C)s/c1=C\c1scc[n+]1C(C)c1ccccc1` (stereo not drawn) [JG-318], the IC50 was found to be 0.11 ± 0.01 µM in the assay with MDA-MB-231 (MDA-MB-231, 72-hour incubation); 1.1 ± 0.1 µM with MEF (C57BL/6) (setting [2]); 0.16 ± 0.03 µM in the assay on MCF-7 (MCF7, MTT, 72-hour incubation).
The corresponding values for `CCn1c(=O)/c(=C2\Sc3cc(SC)ccc3N2C)s/c1=C\c1scc[n+]1Cc1ccccc1OC` [JG-358] are 0.11 ± 0.01 µM, 1.6 ± 0.1 µM and 0.22 ± 0.01 µM.
Consider `CCn1c(=O)/c(=C2\Sc3cc(Cl)ccc3N2C)s/c1=C\c1scc[n+]1Cc1c(C)noc1C` [JG-267], for which the IC50 is 10 ± 2 µM in the assay with MDA-MB-231 (MDA-MB-231, 72-hour incubation); 7.6 ± 0.3 µM with MEF (C57BL/6) (setting [4]); above 5 µM with MCF-7 (MCF7, MTT, 72-hour incubation).
Regarding `CCn1c(=O)/c(=C2\Sc3cc(C(C)C)ccc3N2C)s/c1=C\c1scc[n+]1Cc1ccccc1OC(F)(F)F` [JG-325], the IC50 in the assay on MDA-MB-231 (setting [1]) amounted to 0.21 ± 0.01 µM; in the assay with MEF (C57BL/6) (setting [4]) it was 0.48 ± 0.02 µM; in the assay on MCF-7 (MCF7, 72 h), 0.09 ± 0.005 µM.
Take `CCn1c(=O)/c(=C2\Sc3cc(Br)ccc3N2C)s/c1=C\c1scc[n+]1Cc1ccsc1C(=O)OC` [JG-293]: the IC50 with MDA-MB-231 (MDA-MB-231, 72-hour incubation) is 0.14 ± 0.03 µM; with MEF (C57BL/6) (setting [2]) it was 3.1 ± 0.3 µM; in the assay with MCF-7 (MCF7, MTT, 72-hour incubation), 0.3 ± 0.03 µM.
The corresponding values for `CCn1c(=O)/c(=C2\Sc3cc(C(C)C)ccc3N2C)s/c1=C\c1scc[n+]1C(C)c1ccccc1` (stereo not drawn) [JG-319] are 0.26 ± 0.03 µM, 1.7 ± 0.04 µM and 0.13 ± 0.01 µM.
On to `CCn1c(=O)/c(=C2\Sc3cc(F)ccc3N2C)s/c1=C\c1scc[n+]1Cc1ccccc1Br` [JG-308], for which the IC50 came out at 0.19 ± 0.02 µM in the assay with MDA-MB-231 (MDA-MB-231, 72-hour incubation); 0.6 ± 0.06 µM in the assay with MEF (C57BL/6) (setting [2]); 0.16 ± 0.02 µM in the assay with MCF-7 (MCF7, MTT, 72-hour incubation).
In the same order, the values of `CCc1ccc2c(c1)S/C(=c1/s/c(=C\c3scc[n+]3Cc3ccccc3OC)n(CC)c1=O)N2C` [JG-346] are 0.073 ± 0.007 µM, 0.71 ± 0.03 µM and 0.11 ± 0.01 µM.
The corresponding values for `CCn1c(=O)/c(=C2\Sc3cc(Cl)ccc3N2C)s/c1=C\c1scc[n+]1CCc1cccc(C(F)(F)F)c1` [JG-383] are 0.74 ± 0.08 µM, 2.3 ± 0.2 µM and 0.78 ± 0.06 µM.
In the same order, the values of `CCn1c(=O)/c(=C2\Sc3cc(OC)ccc3N2C)s/c1=C\c1scc[n+]1Cc1ccccc1C` [JG-302] are 0.11 ± 0.01 µM, 1.8 ± 0.05 µM and 0.12 ± 0.01 µM.

The values are drawn from US10221171B2, “Oxathiazole thiazolium Hsp 70 inhibitors” (THE REGENTS OF THE UNIVERSITY OF CALIFORNIA, priority 2015, dated 2019).
